In PubChem BioAssay AID248 (DTP/NCI, 2004):
Values joined by “and” are separate entries in the source; they are usually repeats but may differ in a detail not shown here. Equal entries are not always repeated. Inconclusive results and toxic doses are left out. No stated cut-off is given here; in the data, active means T/C of 150% or more; inactive means T/C below 125%.

Test system: L1210 leukemia ip in BDF1 mice, survival T/C
Test: NCI In Vivo Anticancer Drug Screen. Data for tumor model L1210 Leukemia (intraperitoneal) in B6D2F1 (BDF1) mice
Settings: endpoint: mean survival time, higher = longer survival
Method in brief: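 Value reflects the ratio of survival in compound-treated mice to survival in vehicle-treated controls, with both groups carrying the same transplanted tumor.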

[1] = dose: 100.0 mg/kg/injection, schedule: Q01DX009 (ip), vehicle: saline with Tween-80
[2] = dose: 200.0 mg/kg/injection, schedule: Q01DX009 (ip), vehicle: saline with Tween-80
[3] = dose: 50.0 mg/kg/injection, schedule: Q01DX001 (ip), vehicle: carboxymethylcellulose (CMC)
[4] = dose: 100.0 mg/kg/injection, schedule: Q01DX001 (ip), vehicle: carboxymethylcellulose (CMC)
[5] = dose: 200.0 mg/kg/injection, schedule: Q01DX001 (ip), vehicle: carboxymethylcellulose (CMC)
[6] = dose: 100.0 mg/kg/injection, schedule: Q01DX001 (ip), vehicle: saline
[7] = dose: 200.0 mg/kg/injection, schedule: Q01DX001 (ip), vehicle: saline
[8] = dose: 400.0 mg/kg/injection, schedule: Q01DX001 (ip), vehicle: saline
[9] = dose: 100.0 mg/kg/injection, schedule: Q01DX009 (ip), vehicle: Klucel (hydroxypropylcellulose) (HPC)
[10] = dose: 100.0 mg/kg/injection, schedule: Q04DX003 (ip), vehicle: Klucel (hydroxypropylcellulose) (HPC)
[11] = dose: 200.0 mg/kg/injection, schedule: Q01DX009 (ip), vehicle: Klucel (hydroxypropylcellulose) (HPC)
[12] = dose: 200.0 mg/kg/injection, schedule: Q04DX003 (ip), vehicle: Klucel (hydroxypropylcellulose) (HPC)
[13] = dose: 400.0 mg/kg/injection, schedule: Q01DX009 (ip), vehicle: Klucel (hydroxypropylcellulose) (HPC)
[14] = dose: 400.0 mg/kg/injection, schedule: Q04DX003 (ip), vehicle: Klucel (hydroxypropylcellulose) (HPC)
[15] = dose: 100.0 mg/kg/injection, schedule: Q04DX002 (ip), vehicle: Klucel (hydroxypropylcellulose) (HPC)
[16] = dose: 200.0 mg/kg/injection, schedule: Q04DX002 (ip), vehicle: Klucel (hydroxypropylcellulose) (HPC)

Measured: T/C

Cc1ccc(S(=O)(=O)CO)cc1
inactive: dose: 50.0 mg/kg/injection, schedule: Q01DX009 (ip), vehicle: saline with Tween-80 108 % of control | [1] 89 % of control | [2] 97 % of control

NC(=O)c1ccccc1OC(=O)Nc1ccc(F)cc1
inactive: [3] 100 % of control | dose: 50.0 mg/kg/injection, schedule: Q01DX009 (ip), vehicle: carboxymethylcellulose (CMC) 97 % of control | [4] 103 % of control | dose: 100.0 mg/kg/injection, schedule: Q01DX009 (ip), vehicle: carboxymethylcellulose (CMC) 100 % of control and 103 % of control | dose: 100.0 mg/kg/injection, schedule: Q04DX002 (ip), vehicle: carboxymethylcellulose (CMC) 100 % of control and 109 % of control | [5] 102 % of control | dose: 200.0 mg/kg/injection, schedule: Q04DX002 (ip), vehicle: carboxymethylcellulose (CMC) 100 % of control | dose: 400.0 mg/kg/injection, schedule: Q04DX002 (ip), vehicle: carboxymethylcellulose (CMC) 86 % of control

CC(C#N)CN1CC1 (centres undefined)
inactive: dose: 20.0 mg/kg/injection, schedule: Q01DX001 (ip), vehicle: Klucel (hydroxypropylcellulose) (HPC) 101 % of control

COc1ccc(NC2=CC(=O)C(=O)c3ccccc32)nn1
inactive: [6] 91 % of control | [7] 89 % of control | [8] 95 % of control

CC(=O)OCC(C)CCC(=O)C(C)C1C(=O)CC2C3CC=C4CC(OC(C)=O)CCC4(C)C3CCC21C (centres undefined)
inactive: [1] 96 % of control | [2] 97 % of control | dose: 400.0 mg/kg/injection, schedule: Q01DX009 (ip), vehicle: saline with Tween-80 96 % of control

C(=C1/CCCc2ccccc21)/c1ccccn1
inactive: dose: 100.0 mg/kg/injection, schedule: Q01DX001 (ip), vehicle: other 98 % of control | dose: 200.0 mg/kg/injection, schedule: Q01DX001 (ip), vehicle: other 103 % of control | dose: 400.0 mg/kg/injection, schedule: Q01DX001 (ip), vehicle: other 90 % of control

O=C(c1ccccc1)C1C(c2ccccc2)N1CCl (centres undefined)
inactive: [9] 98 % of control | [10] 92 % of control | [11] 94 % of control | [12] 105 % of control | [13] 100 % of control | [14] 107 % of control

NS(=O)(=O)c1ccc(NC(=O)Nc2ccccc2Cl)cc1
inactive: dose: 100.0 mg/kg/injection, schedule: Q01DX001 (ip), vehicle: Klucel (hydroxypropylcellulose) (HPC) 90 % of control | [9] 100 % of control and 90 % of control | [15] 97 % of control and 108 % of control | [10] 106 % of control | dose: 200.0 mg/kg/injection, schedule: Q01DX001 (ip), vehicle: Klucel (hydroxypropylcellulose) (HPC) 88 % of control | [11] 94 % of control and 103 % of control | [16] 93 % of control and 108 % of control | [12] 106 % of control | dose: 400.0 mg/kg/injection, schedule: Q01DX001 (ip), vehicle: Klucel (hydroxypropylcellulose) (HPC) 92 % of control | [13] 98 % of control and 90 % of control | dose: 400.0 mg/kg/injection, schedule: Q04DX002 (ip), vehicle: Klucel (hydroxypropylcellulose) (HPC) 108 % of control and 92 % of control | [14] 105 % of control

CC(=O)c1ccc(NCc2cnc3nc(N)nc(N)c3n2)cc1
inactive: dose: 20.0 mg/kg/injection, schedule: Q01DX009 (ip), vehicle: Klucel (hydroxypropylcellulose) (HPC) 102 % of control | dose: 40.0 mg/kg/injection, schedule: Q01DX009 (ip), vehicle: Klucel (hydroxypropylcellulose) (HPC) 105 % of control | dose: 80.0 mg/kg/injection, schedule: Q01DX009 (ip), vehicle: Klucel (hydroxypropylcellulose) (HPC) 105 % of control

OC(CNc1ccccc1)CN1CCCC1 (centres undefined)
inactive: dose: 100.0 mg/kg/injection, schedule: Q04DX003 (ip), vehicle: saline 89 % of control | dose: 200.0 mg/kg/injection, schedule: Q04DX003 (ip), vehicle: saline 94 % of control

CCOC(=O)C(CNC(N)=O)(c1ccccc1)c1ccccc1
inactive: [3] 93 % of control | [4] 102 % of control | [5] 87 % of control | dose: 400.0 mg/kg/injection, schedule: Q01DX001 (ip), vehicle: carboxymethylcellulose (CMC) 98 % of control

CCCC(O)c1ccc(OC)c(OC)c1 (centres undefined)
inactive: [15] 97 % of control | [16] 102 % of control

O=C(NCCCC1C2CCC(C2)C1CNC(=O)Nc1cccc(Cl)c1)Nc1cccc(Cl)c1 (centres undefined)
inactive: dose: 100.0 mg/kg/injection, schedule: Q04DX003 (ip), vehicle: saline with Tween-80 91 % of control | dose: 200.0 mg/kg/injection, schedule: Q04DX003 (ip), vehicle: saline with Tween-80 92 % of control | dose: 400.0 mg/kg/injection, schedule: Q04DX003 (ip), vehicle: saline with Tween-80 87 % of control

COc1ccc(N2c3ccccc3-c3cc[nH]c(=O)c3[C@H]2O)cc1OC
inactive: dose: 12.5 mg/kg/injection, schedule: Q04DX003 (ip), vehicle: saline 93 % of control | dose: 25.0 mg/kg/injection, schedule: Q04DX003 (ip), vehicle: saline 101 % of control | dose: 50.0 mg/kg/injection, schedule: Q04DX003 (ip), vehicle: saline 91 % of control | dose: 75.0 mg/kg/injection, schedule: Q04DX003 (ip), vehicle: saline 99 % of control | dose: 115.0 mg/kg/injection, schedule: Q04DX003 (ip), vehicle: saline 105 % of control | dose: 170.0 mg/kg/injection, schedule: Q04DX003 (ip), vehicle: saline 94 % of control

Cc1cccc(C(=O)NCC(=O)O)c1
inactive: dose: 50.0 mg/kg/injection, schedule: Q01DX009 (ip), vehicle: saline 98 % of control | dose: 100.0 mg/kg/injection, schedule: Q01DX009 (ip), vehicle: saline 94 % of control | dose: 100.0 mg/kg/injection, schedule: Q04DX002 (ip), vehicle: saline with Tween-80 99 % of control | dose: 200.0 mg/kg/injection, schedule: Q01DX009 (ip), vehicle: saline 91 % of control | dose: 200.0 mg/kg/injection, schedule: Q04DX002 (ip), vehicle: saline with Tween-80 96 % of control

COc1ccc(-n2c(=O)c(N=Nc3ccccc3C)c(O)n(-c3ccc(Br)cc3)c2=S)cc1
inactive: dose: 37.5 mg/kg/injection, schedule: Q01DX001 (ip), vehicle: Klucel (hydroxypropylcellulose) (HPC) 94 % of control | dose: 75.0 mg/kg/injection, schedule: Q01DX001 (ip), vehicle: Klucel (hydroxypropylcellulose) (HPC) 92 % of control | dose: 150.0 mg/kg/injection, schedule: Q01DX001 (ip), vehicle: Klucel (hydroxypropylcellulose) (HPC) 105 % of control

O=C(O)C(SC(C(=O)O)c1ccccc1)c1ccccc1 (centres undefined)
inactive: dose: 75.0 mg/kg/injection, schedule: Q04DX003 (ip), vehicle: saline with Tween-80 94 % of control | [6] 93 % of control | dose: 150.0 mg/kg/injection, schedule: Q04DX003 (ip), vehicle: saline with Tween-80 96 % of control | [7] 104 % of control | dose: 300.0 mg/kg/injection, schedule: Q04DX003 (ip), vehicle: saline with Tween-80 104 % of control | [8] 98 % of control

C=C(C)CC/C=C/C
inactive: dose: 50.0 mg/kg/injection, schedule: Q01DX001 (ip), vehicle: saline 115 % of control | [6] 115 % of control | [7] 110 % of control

CCCCCCC(CO)CCCC (centres undefined)
inactive: [10] 97 % of control | [12] 97 % of control | [14] 100 % of control
